# Results published in patent US20200199102A1, “COMPOUNDS THAT PARTICIPATE IN COOPERATIVE BINDING AND USES THEREOF” (Revolution Medicines, Inc., priority 2017, published 2020).
# pIC50, pKd: −log10 of the molar value. Where a SMILES comes first, the peptide text is derived from it. [ ]: non-standard residue; d: D form. MeBmt = C/C=C/C[C@@H](C)[C@@H](O)[C@H](NC)C(=O)O; NMeL = CN[C@@H](CC(C)C)C(=O)O; dNMeV = CN[C@@H](C(=O)O)C(C)C; NMeNva = CCC[C@H](NC)C(=O)O; NMeV = CN[C@H](C(=O)O)C(C)C; Abu = CC[C@H](N)C(=O)O; Sar = CNCC(=O)O
# Legend:
# HeLa-CyclophilinA cells = assay: Biosensor cell permeability assay (cyclophilin destabilizing mutant), HeLa-CyclophilinA cells; assay type: cell-based; conditions: 72 hrs
# Description: Cell permeability of compounds can be determined using the following protocol.
# This protocol utilizes a modified FKBP or cyclophilin destabilizing mutant to determine the bioactivity of FKBP binding compounds or cyclophilin binding compounds in whole cell assay.
# DMEM, DMEM without Phenol Red, 10% FBS, 1× Sodium Pyruvate, 1× Glutamax. Add 125 μl of media with compound per well.
# Plate HeLa-FKBP12 cells (for FKBP binding compounds) or HeLa-CyclophilinA cells (for cyclophilin binding compounds) and seed overnight at 5 k/well (approximately ˜18 hrs.). Using a multi-channel pipet, take out the old media and add ˜125 ul of new media with compounds. Compounds are diluted using DMEM without Phenol Red, 10% FBS, 1× Sodium Pyruvate, 1× Glutamax. Add 125 μL of media with compound per well. Cells are treated with compounds at concentration: 30, 10, 3.33, 1.11, 0.37, 0.12, 0.04 and 0.013 uM. Time points are taken at 72 hrs and plate read using plate reader with excitation/emission: 575/620.
# Cell binding/permeability is calculated in fold-change (Total RFU of treated samples/total RFU of DMSO treated samples or total RFU above background (Total RFU minus total RFU of DMSO treated samples).
# Cyclophilin A = target: T1, Cyclophilin A (Homo sapiens, UniProt P62937); assay: AlphaLISA inhibition of binding of biotinylated Cyclosporin A to FLAG tagged Cyclophilin A; conditions: for % signal: AlphaLISA signal; for % signal / % inhibition of CsA binding to Cyclophilin A: test concentration not given; for pIC50: read-out: IC50 value of CsA binding to Cyclophilin A
# T1 construct: made in house
# Method in brief: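 Inhibition of biotin-CsA binding to FLAG-tagged Cyclophilin A read by AlphaLISA (ex 680, em 615 nm). Working stocks were 6 nM biotinylated CsA and 25 nM FLAG-CypA; beads and compound were combined first for 30 min, then protein added for 60 min, all at room temperature in the dark, with DMSO and cyclosporin A controls.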
# FKBP12 [1] = target: T2, FKBP12 (Homo sapiens, UniProt P62942); assay: SPR binding of compound (analyte) to immobilized FKBP12; conditions: read-out: SPR affinity to FKBP12: KD; 25° C., Table 7
# Description: This protocol utilizes Surface Plasmon Resonance (SPR) as a method to determine kinetics (KD, Ka, Kd) for the binding of compound (analyte) to immobilized FKBP12 (ligand).
# Compound in 100% DMSO (in-house), 10×HBS-P+ buffer (GE Healthcare BR-1006-71), Assay buffer (1×HBS-P+ buffer, 1% DMSO), 12×HIS tagged FKBP12 (in-house).
# Experiments are performed at 25° C. Stock solution of 12×HIS tagged FKBP12 is diluted to 100 nM in assay buffer (1% DMSO final). Approximately 500-600 RU of FKBP12 is immobilized on one of two flow cells of an activated NTA chip. The second flow cell is not activated as a reference for non-specific interaction of the analyte to the sensor chip. Various concentrations of compound (1 nM-1 μM range), serially diluted into the same assay buffer (1% DMSO final), are injected onto the FKBP12 surface and reference surface at a flow rate of 10 μl/min. The surface is regenerated between analyte injections with 350 mM EDTA.
# The BiaEvaluation software program is used for data fitting. All data is reference subtracted against both the reference flow cell and a buffer injection. For kinetic analyses, data is locally fit to a 1:1 interaction model.
# Experiments are performed at 25° C. Stock solution of 12×HIS tagged FKBP12 is diluted to 100 nM in assay buffer (1% DMSO final). Approximately 500-600 RU of FKBP12 is immobilized on one of two flow cells of an activated NTA chip. The second flow cell is not activated as a reference for non-specific interaction of the analyte to the sensor chip.
# FKBP12 [2] = target: T2, FKBP12; assay: AlphaLISA inhibition of binding of biotinylated FK506 to FLAG tagged FKBP12; parameters: made in house; conditions: read-out: Binding affinity to FKBP12 (by displacement of FK506)
# Description: The binding of compounds of the invention to FKBP12 can be determined using the following protocol.
# This protocol utilizes Perkin Elmers AlphaLISA technology platform to detect FKBP binders by measuring the inhibition of binding of biotinylated FK506 to FLAG tagged FKBP12.
# 10×TBST Buffer (Boston BioProducts IBB-181), Biotinylated FK506 (in-house), FLAG tagged FKBP (in-house); anti-FLAG Donor beads (PerkinElmer AS103) and Streptavidin Acceptor beads (PerkinElmer AL125); Compounds in DMSO (in-house), FK506.
# Add 20 uL of 12.5 nM FKBP-FLAG working stock to each well of the 96-well plate. Add 1 uL of test compound (100% DMSO) to each well of the plate using the Janus MTD head and P20 tips (except control wells). Add 1 uL of DMSO to negative control wells and 1 uL of 50 uM FK506 solution to positive control wells. In the dark, add 20 uL of combined Donor/Acceptor beads to each well. Incubate in the dark for 30 minutes at room temperature. In the dark, add 10 uL of 5 nM biotinylated FK506 working stock to each well. Incubate in the dark for 60 minutes at room temperature. Protect plate from light until reading on Biotek Synergy2 Plate Reader; Alphalisa 96-well protocol (680 excitation/615 emission).
# T1 sequence (P62937 whole entry, species assumed): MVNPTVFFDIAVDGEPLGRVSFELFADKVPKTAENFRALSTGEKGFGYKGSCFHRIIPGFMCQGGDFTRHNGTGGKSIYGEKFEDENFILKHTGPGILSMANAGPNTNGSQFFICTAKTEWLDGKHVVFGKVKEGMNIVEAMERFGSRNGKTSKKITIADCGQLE
# T2 sequence (P62942 whole entry, species assumed): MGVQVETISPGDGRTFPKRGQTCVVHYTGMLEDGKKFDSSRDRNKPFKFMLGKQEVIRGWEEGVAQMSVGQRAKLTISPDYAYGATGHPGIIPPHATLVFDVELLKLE
pIC50 (HeLa-CyclophilinA cells),% signal (Cyclophilin A) [%],pIC50 (Cyclophilin A),% inhibition of CsA binding to Cyclophilin A (Cyclophilin A) [%],pKd (FKBP12 [1]),pIC50 (FKBP12 [2]),Structure (SMILES)
> 5.52,−0.08,> 5.70,100.08,–,–,C/C=C/C[C@@H](C)[C@@H](O)[C@H]1C(=O)N[C@@H](CC)C(=O)N(C)CC(=O)N(C)[C@@H]([C@@H](C)CC)C(=O)N[C@@H](C(C)C)C(=O)N(C)[C@@H](CC(C)C)C(=O)N[C@@H](C)C(=O)N[C@H](C)C(=O)N(C)[C@@H](CC(C)C)C(=O)N(C)[C@@H](CC(C)C)C(=O)N(C)[C@@H](C(C)C)C(=O)N1C [Compound C33]
< 5.52,0.89,> 5.70,99.11,–,–,C/C=C/C[C@@H](C)[C@@H](O)[C@H]1C(=O)N[C@@H](CC)C(=O)N(C)CC(=O)N(C)[C@H](C)C(=O)N[C@@H](C(C)C)C(=O)N(C)[C@@H](CC(C)C)C(=O)N[C@@H](C)C(=O)N[C@H](C)C(=O)N(C)[C@@H](CC(C)C)C(=O)N(C)[C@@H](CC(C)C)C(=O)N(C)[C@@H](C(C)C)C(=O)N1C [Compound C35]
> 5.52,0.29,> 5.70,99.71,–,–,C/C=C/C[C@@H](C)[C@@H](O)[C@H]1C(=O)N[C@@H](CC)C(=O)N(C)CC(=O)N(C)[C@@H](CCCC)C(=O)N[C@@H](C(C)C)C(=O)N(C)[C@@H](CC(C)C)C(=O)N[C@@H](C)C(=O)N[C@H](C)C(=O)N(C)[C@@H](CC(C)C)C(=O)N(C)[C@@H](CC(C)C)C(=O)N(C)[C@@H](C(C)C)C(=O)N1C [Compound C43]
–,13.65,> 5.70,86.35,–,–,C/C=C/C[C@@H](C)[C@@H](O)[C@H]1C(=O)N[C@@H](CC)C(=O)N(C)CC(=O)N(C)[C@H](C(C)C)C(=O)N[C@@H](C(C)C)C(=O)N(C)[C@@H](CC(C)C)C(=O)N[C@@H](CC)C(=O)N[C@H](C)C(=O)N(C)[C@@H](CC(C)C)C(=O)N(C)[C@@H](CC(C)C)C(=O)N(C)[C@@H](C(C)C)C(=O)N1C [Compound C103] (cyclo([Abu][Sar][dNMeV]V[NMeL][Abu][dA][NMeL][NMeL][NMeV][MeBmt]))

# Further lines, the molecule ahead of its results:
Structure (SMILES),pIC50 (HeLa-CyclophilinA cells),% signal (Cyclophilin A) [%],pIC50 (Cyclophilin A),% inhibition of CsA binding to Cyclophilin A (Cyclophilin A) [%],pKd (FKBP12 [1]),pIC50 (FKBP12 [2])
C/C=C/C[C@@H](C)[C@@H](O)[C@H]1C(=O)N[C@@H](CC)C(=O)N(C)CC(=O)N(C)[C@@H](C)C(=O)N[C@@H](C(C)C)C(=O)N(C)[C@@H](CC(C)C)C(=O)N[C@@H](C)C(=O)N[C@H](C)C(=O)N(C)[C@@H](CC(C)C)C(=O)N(C)[C@@H](CC(C)C)C(=O)N(C)[C@@H](C(C)C)C(=O)N1C [Compound C34],> 5.52,−0.01,> 5.70,100.01,–,–
C/C=C/C[C@@H](C)[C@@H](O)[C@H]1C(=O)N[C@@H](CC)C(=O)N(C)CC(=O)N(C)CC(=O)N[C@@H](C(C)C)C(=O)N(C)[C@@H](CC(C)C)C(=O)N[C@@H](C)C(=O)N[C@H](C)C(=O)N(C)[C@@H](CC(C)C)C(=O)N(C)[C@@H](CC(C)C)C(=O)N(C)[C@@H](C(C)C)C(=O)N1C [Compound C37],< 5.52,1.56,> 5.70,98.44,–,–
C/C=C/C[C@@H](C)[C@@H](O)[C@H]1C(=O)N[C@@H](CC)C(=O)N(C)CC(=O)N(C)[C@@H]([C@@H](C)O)C(=O)N[C@@H](C(C)C)C(=O)N(C)[C@@H](CC(C)C)C(=O)N[C@@H](C)C(=O)N[C@H](C)C(=O)N(C)[C@@H](CC(C)C)C(=O)N(C)[C@@H](CC(C)C)C(=O)N(C)[C@@H](C(C)C)C(=O)N1C [Compound C38],> 5.52,1.57,> 5.70,98.43,–,–
C/C=C/C[C@@H](C)[C@@H](O)[C@H]1C(=O)N[C@@H](CC)C(=O)N(C)CC(=O)N(C)[C@@H](Cc2ccc(O)cc2)C(=O)N[C@@H](C(C)C)C(=O)N(C)[C@@H](CC(C)C)C(=O)N[C@@H](C)C(=O)N[C@H](C)C(=O)N(C)[C@@H](CC(C)C)C(=O)N(C)[C@@H](CC(C)C)C(=O)N(C)[C@@H](C(C)C)C(=O)N1C [Compound C39],> 5.52,3.78,> 5.70,96.22,–,–
C/C=C/C[C@@H](C)[C@@H](O)[C@H]1C(=O)N[C@@H](CC)C(=O)N(C)CC(=O)N(C)[C@H](C(C)C)C(=O)N[C@@H](C(C)C)C(=O)N(C)[C@@H](CC(C)C)C(=O)N[C@@H](C)C(=O)N[C@H](C)C(=O)N(C)[C@@H](CC(C)C)C(=O)N(C)[C@@H](CC(C)C)C(=O)N(C)[C@@H](C(C)C)C(=O)N1C [Compound C42],< 5.52,1.26,> 5.70,98.74,–,–
C/C=C/C[C@@H](C)[C@@H](O)[C@H]1C(=O)N[C@@H](CC)C(=O)N(C)CC(=O)N(C)[C@@H](CCC)C(=O)N[C@@H](C(C)C)C(=O)N(C)[C@@H](CC(C)C)C(=O)N[C@@H](C)C(=O)N[C@H](C)C(=O)N(C)[C@@H](CC(C)C)C(=O)N(C)[C@@H](CC(C)C)C(=O)N(C)[C@@H](C(C)C)C(=O)N1C [Compound C44],> 5.52,−0.07,> 5.70,100.07,–,–
C/C=C/C[C@@H](C)[C@@H](O)[C@H]1C(=O)N[C@@H](CC)C(=O)N(C)CC(=O)N(C)[C@@H](CCC)C(=O)N[C@@H](C(C)C)C(=O)N(C)[C@@H](CC(C)C)C(=O)N[C@@H](CC)C(=O)N[C@H](C)C(=O)N(C)[C@@H](CC(C)C)C(=O)N(C)[C@@H](CC(C)C)C(=O)N(C)[C@@H](C(C)C)C(=O)N1C [Compound C102] (cyclo([Abu][Sar][NMeNva]V[NMeL][Abu][dA][NMeL][NMeL][NMeV][MeBmt])),–,0.70,> 5.70,–,–,–
C/C=C/C[C@@H](C)[C@@H](O)[C@H]1C(=O)N[C@@H](CC)C(=O)N(C)CC(=O)N(C)[C@@H](CCCC)C(=O)N[C@@H](C(C)C)C(=O)N(C)[C@@H](CC(C)C)C(=O)N[C@@H](CC)C(=O)N[C@H](C)C(=O)N(C)[C@@H](CC(C)C)C(=O)N(C)[C@@H](CC(C)C)C(=O)N(C)[C@@H](C(C)C)C(=O)N1C [Compound C104],–,0.99,> 5.70,99.01,–,–
CCC(Cc1ccccc1)C1C=CCC=CCC(C)C(O)C(C)C2CCC(C)C(O)(CC(=O)N3CCCCC3C(=O)O1)O2 (stereo not shown) [Compound F1],–,–,–,–,7.15,6.45
